Reference: patent US5240928A, “Substituted quinazolinones as angiotensin II antagonists” (Merck & Co., Inc., priority 1991, dated 1993)

Assay: pKa
Assay type: physicochemical

pKa: 4.7
SMILES: CCCc1nc2ccc(C)cc2c(=O)n1Cc1ccc(-c2ccccc2-c2nn[nH]n2)cc1 [Example 76]
